Measurements: ChEMBL document CHEMBL3045341, “Triterpene saponins of Quillaja saponaria show strong aphicidal and deterrent activity against the pea aphid Acyrthosiphon pisum” (2012)
Converted amounts (≈) assume the structure as drawn.

How the values were obtained:
Assay type in all cases: functional
Settings in all cases: 72 h
Acyrthosiphon pisum [1] = assay: Insecticidal activity against Acyrthosiphon pisum (pea aphid) assessed as mortality at 5 mg/ml after 3 days by no-choice assay
Acyrthosiphon pisum [2] = assay: Insecticidal activity against Acyrthosiphon pisum (pea aphid) assessed as mortality at 1 mg/ml after 3 days by no-choice assay
Acyrthosiphon pisum [3] = assay: Insecticidal activity against Acyrthosiphon pisum (pea aphid) after 3 days by no-choice assay

SMILES | mortality at 5000 µg/mL (Acyrthosiphon pisum [1]) [%] | mortality at 1000 µg/mL (Acyrthosiphon pisum [2]) [%] | LC50 (Acyrthosiphon pisum [3]) [µg/mL]
C[C@@H]1CC[C@@]2(OC1)O[C@H]1[C@@H](O)[C@H]3[C@@H]4CC[C@H]5C[C@@H](O[C@@H]6O[C@H](CO)[C@H](O[C@@H]7O[C@H](CO)C(O)[C@H](O[C@@H]8OC[C@@H](O)[C@H](O)[C@H]8O)[C@H]7O[C@@H]7O[C@H](CO)[C@H](O)[C@H](O[C@@H]8O[C@H](CO)[C@@H](O)[C@H](O)[C@H]8O)[C@H]7O)[C@H](O)[C@H]6O)[C@H](O)C[C@]5(C)[C@H]4CC[C@]3(C)[C@H]1[C@@H]2C (some centres undefined) [DIGITONIN] | 14 | 76 | 0.45 (≈ 0.366 µM)
C[C@@H]1CC[C@@]2(OC1)O[C@H]1C[C@H]3[C@@H]4CC=C5C[C@@H](O)CC[C@]5(C)[C@H]4CC[C@]3(C)[C@H]1[C@@H]2C [DISOGENIN] | 18 |  | 
